Source: US7456179B2, “Methods of treating ischemic related conditions” (priority 2003, dated 2008)
“Also recorded” adds a separate entry of the source. Where two headings read alike, the source gives them in different places.

Key:
Primary cortical neurons [1] = experiment: H2O2-induced oxidative stress (150 μM), MTS assay, comparison with known neuroprotectants; assay type: cell-based, rat; conditions: 24 h pre-treatment, then harsh H2O2 treatment (150 μM)
Description: Primary cortical neurons were isolated from a 17 day old rat embryonic brain and seeded on 96-well plate at 50,000 cells/well in regular neurobasal medium for 2-3 week. Twice, half the amount of medium was replaced with fresh neurobasal medium containing no antioxidants. […] Other known neuroprotectants were dissolved in the proper solvent and diluted into final concentration as indicated. […] Each assay was performed in triplicate. After 24 hours, the cultures were evaluated for viability and mitochondrial function using a standard MTS Assay (Promega). The manufacturer's protocols were followed. Experiments were carried out following the procedures described in the Study Design described above. PAN-811 was dissolved in EtOH at 1 mg/ml (˜5 mM), and further diluted in neurobasal medium to final concentration at 0.1 μM, 1 μM, and 10 μM. Lipoic acid was dissolved in EtOH at concentration 240 mM, and further diluted in the neurobasal medium to final concentration at 10 uM, 25 uM, 50 uM and 100 uM. Vitamin E dissolved in EtOH at concentration 100 mM, and further diluted in the neurobasal medium to final concentration at 50 uM, 100 uM, 200 uM and 400 uM. Ginkgo Biloba was dissolved in dH2O at concentration 6 mg/ml, and further diluted in the neurobasal medium to final concentration at 2.5 ug/ml, 5 ug/ml, 25 ug/ml, 250 ug/ml. At the end of the treatment, the medium was replaced with 100 μl fresh pre-warmed neurobasal medium plus B27 (-AO). The plates were returned to the incubator at 37° C. with 5% CO2 for one hour. Subsequently 20 μl MTS reagent was added to each well and plates were incubated at 37° C. with 5% CO2 for an additional two hours. The absorbance at 490 nm for each well was recorded with the BioRad plate reader (Model 550). Wells containing medium alone were used as blanks. Each data point is the average of three separate assay wells. […] Two weeks old primary cultures were used for this set of study. Please see FIG. 1 for results.

Cortical neurons [2] = conditions: for protection from neuronal cell death (morphology): 5 μM, hypoxia, FIG. 4
Description: (§1) Experiments were performed in a 96-well plate format. Cortical neurons were seeded at a density of 50,000 cells/well on poly-D-lysine coated surface, and cultured in serum-free medium (NB plus B27 supplement) to obtain cultures high-enriched for neurons. Neurons were cultured for over 14 d.i.v. to increase cell susceptibility to excitatory amino acids (Jiang et al., 2001). Six replicate wells were treated as a group to facilitate assay quantitation.
(§2) To mimic the cerebral environments of a stroke, we established 3 in vitro model systems. The extreme H/H model (0.4 mM glucose) is a mimic of the environment in the central core of an infarct; the mild H/H model (1.63 mM glucose) is a mimic of the environment in the penumbra during MCAO; and the hypoxia only model (neurons in normal in vitro glucose concentration—25 mM) is a mimic of the environment in the penumbra after reperfusion since the possible cell death after reperfusion is predominantly a result of the hypoxic effect rather then energy failure.
(§3) Hypoxia/hypoglycemia was obtained by reducing glucose concentration down to 0.4 mM and 1.63 mM for extreme H/H and mild H/H respectively. BSS (116.0 mM NaCl, 5.4 mM KCl, 0.8 mM MgSO4.7H2O, 1.0 mM NaH2PO4, 1.8 mM CaCl2.2H2O, 26.2 mM NaHCO3, and 0.01 mM Glycine) or BSS with 25 mM glucose were de-gassed for 5 minutes prior to use. Culture medium in the plates for hypoxia was replaced with BSS or BSS with glucose. Meanwhile, culture medium in the plates for normoxia was replaced with non de-gassed BSS or BSS with glucose. Cells were committed to hypoxic conditions by transferring the plates into a sealed container (Modular Incubator Chamber-101TM, Billups-Rothenberg, Inc.), applying a vacuum for 20 minutes to remove O2 or other gases from the culture medium, and then refilling the chamber with 5% CO2 and 95% N2 at a pressure of 30 psi for 1 minute. The level of O2 in the chamber was determined to be zero with an O2 indicator (FYRITE Gas Analyzer, Bacharach, Inc.). Culture plates were maintained in the chamber for 6 hours. As an experimental control, duplicate culture plates were maintained under normal culture condition (5% CO2 and 95% ambient air) for the same duration. After a 6-hour treatment plates were removed from the chamber and the medium in both the hypoxic and normoxic cultures was replaced with a termination solution (DMEM supplemented with 1× sodium pyruvate, 10.0 mM HEPES, and 1×N2 supplement) containing 25 mM glucose and cultured in 5% CO2 and 95% ambient air conditions. […] MK801 was utilized as a positive control. Mitochondrial function and cell death were evaluated at 24 or 48 hours post H/H insult with the MTS and LDH analyses (see below).
Treatment with drug was continued during and subsequent to a 24-hour period of hypoxia. Cellular morphology and function (MTS and LDH assays) were measured 24 or 48 hours subsequent to the hypoxic insult.
(§4) The MTS assay is a colorimetric assay that measures the mitochondrial function in metabolically active cells. This measurement indirectly reflects cell viability. […] 20 μl of MTS reagent (Promega) are added to each well of the 96 well assay plates containing the samples in 100 μl of culture medium. The plate is then incubated in a humidified, 5% CO2 atmosphere at 37° C. for 1-2 hours until the color is fully developed. The absorbance at 490 nm was recorded using a Bio-Rad 96 well plate reader.
Lactate dehydrogenase (LDH) assay is based on the reduction of NAD by the action of LDH.

Primary cortical neurons [3] = experiment: ROS generation, CM-H2DCFDA / c-DCF fluorescence; assay type: cell-based, rat; conditions: at 10 μM
Description: Primary cortical neurons were isolated from a 17 day old rat embryonic brain and seeded in 96-well plates at 50,000 cells/well in regular neurobasal medium for 2-3 weeks. Twice, half the amount of medium was replaced with fresh neurobasal medium without antioxidants. […] Untreated cells loaded with the dye were used as controls to calculate the c-DCF fluorescence change. Each assay was performed in triplicate. Experiments were carried out following the procedures described in the Study Design described above. The c-DCF fluorescence at 485/520 nm (Ex/Em) for each well was recorded with the BMG polar star plate reader. Wells containing cells without dye were used as blanks. Each data point is the average of three separate assay wells. Untreated cells loaded with the dye were used as a control to calculate the c-DCF fluorescence change. Two weeks old primary cultures were used for the study.

Primary cortical neurons [4] = experiment: H2O2-induced oxidative stress (60-70 μM), MTS assay; assay type: cell-based, rat; conditions: 1-10 μM, 24 h pre-treatment, then 60-70 μM H2O2, MTS
Description: Primary cortical neurons were isolated from a 17 day old rat embryonic brain and seeded on 96-well plate at 50,000 cells/well in regular neurobasal medium for 2-3 week. Twice, half amount of medium was replaced with fresh neurobasal medium containing no antioxidants. […] Each assay was performed in triplicate. […] After 24 hours, the cultures were evaluated for viability and mitochondrial function using a standard MTS Assay (Promega). The manufacturer's protocols were followed. Experiments were carried out following the procedures described in the study design. At the end of the treatment, all treatments and medium were replaced with 100 μl fresh pre-warmed neurobasal medium plus B27 (-AO). The plates were put back into the incubator at 37° C. with 5% CO2 for one hour, then 20 μl MTS reagent was added to each well and plates were incubated at 37° C. with 5% CO2 for an additional two hours. The absorbance at 490 nm for each well was recorded with the BioRad plate reader (Model 550). Wells containing medium alone well was used as blanks. Each data point is the average of three separate assay wells. […] Three weeks old primary cultures were used for this set of study. Please see FIG. 10 for results. Experiments were carried out following the same procedures as experiment 1.

[5] = test system: male Sprague-Dawley rats, MCAO
[6] = Solubility of PAN-811 in solvents; conditions: PEG-300/EtOH (70%/30%) versus EtOH
Description: PAN-811 was dissolved in either EtOH or DMSO at 1 mg/ml (˜5 mM), in PEG-300/EtOH (70%/30%) at 5 mg/ml (˜25 mM), and further diluted in medium to final concentration at 1 μM, 5 μM, 20 μM and 50 μM. […] Equal volume of solvents (EtOH, DMSO, and PEG-300/EtOH) was added to cells to test the solvent effects on the assay.

[7] = test system: enriched neuronal cultures (cerebellar tissue); experiment: Neurotoxicity of PAN-811, MTT assay; conditions: 24 hrs
Description: Neuronal culture. Enriched neuronal cultures were prepared from 15-day-old Sprague-Dawley rat embryos. Using aseptic techniques, the rat embryos were removed from the uterus and placed in sterile neuronal culture medium. Using a dissecting microscope, the brain tissue was removed from each embryo, with care taken to discard the meninges and blood vessels. […] Cells were dissociated by trituration of the tissue and were plated at a density of 5×10^5 cells/well onto 48-well culture plates precoated with poly(L-lysine). […]
3.3.1.2 Neurotoxicity of PAN-811. […] Cell viability was determined in the MTT assay.
3.1.3.4 MTT Assay. […] Cell damage was quantitatively assessed using a tetrazolium salt colorimetric assay with 3-(4,5-dimethylthiazol-2-yl)-2,5-diphenyltetrazolium (MTT; Sigma Chemical Co., St. Louis, Mo.). Briefly, the dye was added to each well (final concentration, 1.5 mg/ml), cells were incubated with MTT-acidified isopropanol (0.1 N HCl in isopropanol), and the absorbance intensity (540 nm) of each sample was measured in a 96-well plate reader. Values are expressed relative to vehicle-treated control cells that were maintained on each plate, and the percentage change in cell viability was calculated.

Cortical neurons [8] = experiment: Extreme hypoxia/hypoglycemia (H/H) model (0.4 mM glucose)
Description: as §1
To mimic the cerebral environments of a stroke, we established 3 in vitro model systems. […]
Hypoxia/hypoglycemia was obtained by reducing glucose concentration down to 0.4 mM and 1.63 mM for extreme H/H and mild H/H respectively. […] The level of O2 in the chamber was determined to be zero with an O2 indicator (FYRITE Gas Analyzer, Bacharach, Inc.). […] Mitochondrial function and cell death were evaluated at 24 or 48 hours post H/H insult with the MTS and LDH analyses (see below).
The MTS assay is a colorimetric assay that measures the mitochondrial function in metabolically active cells. […] The absorbance at 490 nm was recorded using a Bio-Rad 96 well plate reader. […]

Cortical neurons [9] = conditions: for protection from mild H/H: pre-treatment 24 h, H/H 6 h
Description: as §1, §2, §3, §4
Lactate dehydrogenase (LDH) assay is based on the reduction of NAD by the action of LDH. The resulting reduced NAD (NADH) is utilized in the stoichiometric conversion of a tetrazolium dye. If cell-free aliquots of medium from cultures given different treatments are assayed, then the amount of LDH activity can be used as an indicator of relative cell death as well as a function of membrane integrity. A 50 μl aliquot of culture medium from a well in tested 96-well plate is transferred into a well in unused plate and supplemented with 25 μl of equally-mixed Substrate, Enzyme and Dye Solutions (Sigma).

[10] = test system: enriched neuronal cultures (cerebellar tissue); experiment: In vitro models of excitotoxicity (H/H, glutamate, staurosporine, veratridine), MTT assay; conditions: MTT 24 hrs after insult
Description: Neuronal culture. Enriched neuronal cultures were prepared from 15-day-old Sprague-Dawley rat embryos. Using aseptic techniques, the rat embryos were removed from the uterus and placed in sterile neuronal culture medium. Using a dissecting microscope, the brain tissue was removed from each embryo, with care taken to discard the meninges and blood vessels. […] Cells were dissociated by trituration of the tissue and were plated at a density of 5×10^5 cells/well onto 48-well culture plates precoated with poly(L-lysine). Cultures were maintained in a medium containing equal parts of Eagle's basal medium (without glutamine) and Ham's F-12k medium supplemented with 10% heat-inactivated horse serum, 10% fetal bovine serum, 600 μg/ml glucose, 100 μg/ml glutamine, 50 U/ml penicillin, and 50 μg/ml streptomycin. After 48 h, 10 μM cytosine arabinoside was added to inhibit non-neuronal cell division. Cells were used in experiments after 7 days in culture.
Four in vitro models of excitotoxicity were studied. Cells were either exposed to H/H conditions for 3 hrs or treated for 45 min with either glutamate (100 μM), staurosporine (1 μM) or veratridine (10 μM). All cells were cotreated with or without PAN-811 (10 μM) in Locke's solution. At the conclusion of the respective excitotoxic exposures, the condition medium (original) was replaced. H/H was induced by incubating the cells in a humidified airtight chamber saturated with 95% nitrogen, 5% CO2 gas for 3 hrs. in Locke's solution without added glucose.
24 hrs. after the excitotoxic insult cell viability assessments were made. Cell damage was quantitatively assessed using a tetrazolium salt colorimetric assay with 3-(4,5-dimethylthiazol-2-yl)-2,5-diphenyltetrazolium (MTT; Sigma Chemical Co., St. Louis, Mo.). Briefly, the dye was added to each well (final concentration, 1.5 mg/ml), cells were incubated with MTT-acidified isopropanol (0.1 N HCl in isopropanol), and the absorbance intensity (540 nm) of each sample was measured in a 96-well plate reader. Values are expressed relative to vehicle-treated control cells that were maintained on each plate, and the percentage change in cell viability was calculated.

## O=C(O)CCCC[C@@H]1CCSS1 (racemic) [Lipoic acid, reference compound]
Primary cortical neurons [1]; known neuroprotectants
  neuroprotective capacity: minimal neuroprotective capacity

## C[C@]12N[C@H](Cc3ccccc31)c1ccccc12 [MK801, reference compound]
Cortical neurons [2]
  protection from neuronal cell death (morphology): efficient protection from neuronal cell death

## NC(=S)N/N=C/c1ncccc1N [PAN-811, 3-aminopyridine-2-carboxaldehyde thiosemicarbazone]
Primary cortical neurons [1]; PAN-811 at 1-10 μM
  neuroprotective capacity: good neuroprotective capacity; also recorded: significant neuroprotection
Primary cortical neurons [3]
  reduction of the basal level of ROS generation: ~50%
Primary cortical neurons [3]; 1 h, then 300 μM H2O2 for 2 hours
  reduction of H2O2-induced ROS generation: ~30%
Primary cortical neurons [4]
  neuroprotective capacity: good neuroprotective capacity
Cortical neurons [2]; 2 μM, 24 hours prior to, during and subsequent to 24-hour hypoxia
  block of neuronal cell death and mitochondrial dysfunction: completely blocking neuronal cell death and mitochondrial dysfunction
Cortical neurons [2]; 2 μM, 48 h prior to, during 24-hour hypoxia and 48 h subsequent
  block of hypoxia-induced cell death: completely blocked the cell death
Cortical neurons [2]
  protection from neuronal cell death (morphology): efficient protection from neuronal cell death
Cortical neurons [2]; at 2 μM
  protection from sole hypoxia-induced neurotoxicity: completely protected
[5]; 1 mg/kg IV 10 minutes prior to 2 h MCAO, 24 hours after surgery
  range of infarct volume: 42.36-387.08 mm^3
[5]; 1 mg/kg IV 10 minutes prior to 2 h MCAO, 24 hours after surgery, n 14
  mean infarct volume: 225.85 mm^3
[5]; 1 mg/kg IV 10 minutes prior to MCAO, p<0.05
  % protection (reduction in average infarct volume vs vehicle): 23%
[5]; 1 mg/kg IV, 6 of the 7 deaths were vehicle rats
  rats that died (of 7 deaths from severe stroke or SAH): 1 rat
[5]; rat, in vivo
  tolerability / toxicity: well tolerated and relatively non-toxic
[6]
  solubility: better solubility in PEG-300/EtOH comparing to EtOH alone
[7]; concentrations up to 100 μM
  neurotoxicity: only slight toxicity
[7]; highest concentration tested (100 μM)
  maximal toxicity: 7.8%
Cortical neurons [8]; at 100 μM
  block of extreme H/H-induced neuronal cell death: only partially blocked
Cortical neurons [8]; at ≦50 μM, extreme H/H (data not shown)
  protection from neuronal cell death: did not protect neuronal cell death
Cortical neurons [9]; 2 μM, Apr. 17, 2003, culture age 13 days, 48 h post H/H
  protection from mild H/H: 100% protected
Cortical neurons [9]; 2 μM, Jul. 9, 2003, culture age 13 days, 20 h post H/H
  protection from mild H/H: 100% protected
Cortical neurons [9]; 2 μM, May 2, 2003, culture age 22 days, 24 h post H/H
  protection from mild H/H: 100% protected
Cortical neurons [9]; 2 μM, May 8, 2003, culture age 42 days, 24 h post H/H
  protection from mild H/H: 100% protected
Cortical neurons [9]; 5 μM, 24 hours before and during 6-hour H/H, 15-day culture, MTS and LDH 17 hours post
  protection from H/H-induced mitochondria dysfunction and neuronal cell death: completely protected
Cortical neurons [9]; 5 μM, Jul. 25, 2003, culture age 15 days, 24 h post H/H, test range started from 5 μM
  protection from mild H/H: 100% protected
Cortical neurons [9]; 10 μM, Jul. 13, 2003, culture age 15 days, 24 h post H/H, test range started from 5 μM
  protection from mild H/H: 100% protected
Cortical neurons [9]; at 2 μM
  protection from mild H/H induced neurotoxicity: completely protected
Cortical neurons [9]; treatment 24 h before 6-hour H/H only, LDH 48 hours after H/H
  protection from neuronal cell death (LDH): marginally
[10]; 10 μM PAN-811, 1 μM staurosporine 45 min
  protection from damage by staurosporine: ~47%
[10]; 10 μM PAN-811, 10 μM veratridine 45 min
  protection from damage by veratridine: ~39%
[10]; 10 μM PAN-811, 100 μM glutamate 45 min
  protection from damage by glutamate: ~75%
[10]; 10 μM PAN-811, 3 hour H/H
  protection from damage by hypoxia/hypoglycemia: 92%

## Vitamin E [reference compound]
Primary cortical neurons [1]; known neuroprotectants
  neuroprotective capacity: minimal neuroprotective capacity
